From patent US20020137929A1, “1 - (3-heterocyclylphenyl) isothiourea, -isourea, -guanidine and -amidine herbicidal agents” (Intellectual Property Department, BASF Aktiengesellschaft, priority 1998, published 2002)

What was measured:
[1] = system: ECHORC (Watergrass (Calif.)); assay: Preemergence weed control under flooded paddy conditions; assay type: in vivo, Echinochloa oryzoides; details: rated 3-4 weeks after treatment
Procedure, shortened: (§1)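 Ratings on a 0-9 visual scale cover stand, vigor, malformation, size, chlorosis and overall appearance relative to a control, taken three to four weeks post-treatment. Application was into flood water over freshly sown silt loam at roughly 0.0313 to 0.500 kg/ha.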

[2] = system: ECHORC (Watergrass (Calif.)); assay: Postemergence weed control under flooded paddy conditions; assay type: in vivo, Echinochloa oryzoides; details: postemergence weeds, 3-4 weeks after treatment
Procedure, shortened: (§2)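 Flood-water application, about 0.0313–0.500 kg/ha a.i. in aqueous/acetone 50/50 v/v; water depth 1.5–3 cm throughout. Weeds 3–5 cm, rice 1.5–2.5 leaf. Greenhouse; 0–9 visual rating vs control at 3–4 wk.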

[3] = system: CHEAL (Lambsquarters, Common); assay: Preemergence herbicidal evaluation; assay type: in vivo, Chenopodium album; details: rated 4-5 weeks after treatment
Procedure, shortened: (§3)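 Scores use a 0–9 visual scale covering stand, vigor, malformation, size and chlorosis relative to controls, rated four to five weeks after treatment. Before emergence, soil-planted seeds were sprayed with compound in aqueous acetone at roughly 0.0156–0.500 kg/ha and held in the greenhouse.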

ORYSAT (Rice, Tebonnet) = assay: Preemergence herbicidal evaluation; assay type: in vivo, Oryza sativa, (L.) Tebonnet; details: rated 4-5 weeks after treatment
Procedure, shortened: as §3

CYPSE (Flatsedge) [4] = assay: Preemergence weed control under flooded paddy conditions; assay type: in vivo, Cyperus serotinus; details: rated 3-4 weeks after treatment
Procedure, shortened: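 Using flooded silt loam (water 1.5 to 3 cm deep), seeds sown in the top 0.5 cm were exposed preemergence to compound pipetted into the flood at about 0.0313 to 0.500 kg/ha. Effects were scored 0-9 by eye three to four weeks later.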

ZEAMX (Corn, Field) [5] = assay: Postemergence herbicidal evaluation; assay type: in vivo, Zea mays
Procedure, shortened: (§4)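 Visual 0-9 injury score (stand, vigor, malformation, size, chlorosis, appearance vs untreated) taken four to five weeks post-spray, averaged across repeat tests. Test plants about two weeks old; foliar spray of acetone/water (1:1) with 0.5% surfactant delivering ~0.0156-0.500 kg active/ha.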

[6] = system: IPOHE (Morningglory, Ivyleaf); assay: Preemergence herbicidal evaluation; assay type: in vivo, Ipomoea hederacea; details: rated 4-5 weeks after treatment
Procedure, shortened: as §3

[7] = system: TRZAWR (Wheat, Winter, cv Riband); assay: Preemergence herbicidal evaluation; assay type: in vivo, Triticum aestivum; details: rated 4-5 weeks after treatment
Procedure, shortened: as §3

CASOB (Sicklepod) = assay: Postemergence herbicidal evaluation; assay type: in vivo, Cassia obtusifolia
Procedure, shortened: as §4

GALAP (Galium) = assay: Postemergence herbicidal evaluation; assay type: in vivo, Galium aparine
Procedure, shortened: as §4

CYPIR (Rice Flatsedge) = assay: Preemergence weed control under flooded paddy conditions; assay type: in vivo, Cyperus iria; details: rated 3-4 weeks after treatment
Procedure, shortened: as §1

AMBEL (Ragweed, Common) = assay: Preemergence herbicidal evaluation; assay type: in vivo, Ambrosia artemisifolia; details: rated 4-5 weeks after treatment
Procedure, shortened: as §3

CYPSE (Flatsedge) [8] = assay: Postemergence weed control under flooded paddy conditions; assay type: in vivo, Cyperus serotinus; details: postemergence weeds, 3-4 weeks after treatment
Procedure, shortened: as §2

ZEAMX (Corn, Field) [9] = assay: Preemergence herbicidal evaluation; assay type: in vivo, Zea mays; details: rated 4-5 weeks after treatment
Procedure, shortened: as §3

SMILES: Cn1c(C(F)(F)F)cc(=O)n(-c2cc(/N=C3/SCC(=O)N3CC(=O)O)c(Cl)cc2F)c1=O [Compound 52, 2-{{2-Chloro-5-[3,6-dihydro-3-methyl-2,6-dioxo-4-(trifluoromethyl)-1(2H)-pyrimidinyl]-4-fluoro-phenyl}imino}-4-oxo-3-thiazolidineacetic acid]
- Herbicidal rating ECHORC ([1]; 0.2500 kg/ha): 0.0
- Herbicidal rating ECHORC ([2]; rate 0.2500 kg/ha): 0.0
- Preemergence herbicidal rating CHEAL ([3]; rate 0.0313 kg/ha): 0.0
- Preemergence herbicidal rating CHEAL ([3]; rate 0.0625 kg/ha): 6.0
- Preemergence herbicidal rating CHEAL ([3]; rate 0.1250 kg/ha): 9.0
- Preemergence herbicidal rating CHEAL ([3]; rate 0.2500 kg/ha): 9.0
- Preemergence herbicidal rating ORYSAT (ORYSAT (Rice, Tebonnet); rate 0.0313 kg/ha): 0.0
- Preemergence herbicidal rating ORYSAT (ORYSAT (Rice, Tebonnet); rate 0.0625 kg/ha): 0.0
- Preemergence herbicidal rating ORYSAT (ORYSAT (Rice, Tebonnet); rate 0.1250 kg/ha): 0.0
- Preemergence herbicidal rating ORYSAT (ORYSAT (Rice, Tebonnet); rate 0.2500 kg/ha): 4.0
- Herbicidal rating CYPSE (CYPSE (Flatsedge) [4]; 0.2500 kg/ha): 0.0
- Postemergence herbicidal rating ZEAMX (ZEAMX (Corn, Field) [5]; Rate 0.0158 kg/ha): 5.0
- Postemergence herbicidal rating ZEAMX (ZEAMX (Corn, Field) [5]; Rate 0.0315 kg/ha): 7.5
- Postemergence herbicidal rating ZEAMX (ZEAMX (Corn, Field) [5]; Rate 0.0630 kg/ha): 7.0
- Preemergence herbicidal rating IPOHE ([6]; rate 0.0313 kg/ha): 0.0
- Preemergence herbicidal rating IPOHE ([6]; rate 0.0625 kg/ha): 1.0
- Preemergence herbicidal rating IPOHE ([6]; rate 0.1250 kg/ha): 2.0
- Preemergence herbicidal rating IPOHE ([6]; rate 0.2500 kg/ha): 9.0
- Preemergence herbicidal rating TRZAWR ([7]; rate 0.0313 kg/ha): 0.0
- Preemergence herbicidal rating TRZAWR ([7]; rate 0.0625 kg/ha): 0.0
- Preemergence herbicidal rating TRZAWR ([7]; rate 0.1250 kg/ha): 2.0
- Preemergence herbicidal rating TRZAWR ([7]; rate 0.2500 kg/ha): 5.0
- Postemergence herbicidal rating CASOB (CASOB (Sicklepod); Rate 0.0158 kg/ha): 1.0
- Postemergence herbicidal rating CASOB (CASOB (Sicklepod); Rate 0.0315 kg/ha): 1.0
- Postemergence herbicidal rating CASOB (CASOB (Sicklepod); Rate 0.0630 kg/ha): 2.0
- Postemergence herbicidal rating GALAP (GALAP (Galium); Rate 0.0158 kg/ha): 1.0
- Postemergence herbicidal rating GALAP (GALAP (Galium); Rate 0.0315 kg/ha): 4.0
- Postemergence herbicidal rating GALAP (GALAP (Galium); Rate 0.0630 kg/ha): 5.0
- Herbicidal rating CYPIR (CYPIR (Rice Flatsedge); 0.2500 kg/ha): 2.0
- Preemergence herbicidal rating AMBEL (AMBEL (Ragweed, Common); rate 0.0313 kg/ha): 0.0
- Preemergence herbicidal rating AMBEL (AMBEL (Ragweed, Common); rate 0.0625 kg/ha): 0.0
- Preemergence herbicidal rating AMBEL (AMBEL (Ragweed, Common); rate 0.1250 kg/ha): 2.0
- Preemergence herbicidal rating AMBEL (AMBEL (Ragweed, Common); rate 0.2500 kg/ha): 3.0
- Herbicidal rating CYPSE (CYPSE (Flatsedge) [8]; rate 0.2500 kg/ha): 0.0
- Preemergence herbicidal rating ZEAMX (ZEAMX (Corn, Field) [9]; rate 0.0313 kg/ha): 0.0
- Preemergence herbicidal rating ZEAMX (ZEAMX (Corn, Field) [9]; rate 0.0625 kg/ha): 0.0
- Preemergence herbicidal rating ZEAMX (ZEAMX (Corn, Field) [9]; rate 0.1250 kg/ha): 1.0
- Preemergence herbicidal rating ZEAMX (ZEAMX (Corn, Field) [9]; rate 0.2500 kg/ha): 3.0

SMILES: Cn1c(C(F)(F)F)cc(=O)n(-c2cc(N=C3SCC(=O)N3[C@@H](Cc3ccccc3)C(=O)O)c(Cl)cc2F)c1=O [Compound 53, α-Benzyl-2-{{2-chloro-5-[3,6-dihydro-3-methyl-2,6-dioxo-4-(trifluoromethyl)-1(2H)-pyrimidinyl]-4-fluorophenyl}imino}-4-oxo-3-thiazolidineacetic acid, L-]
- Herbicidal rating ECHORC ([1]; 0.0313 kg/ha): 0.0
- Herbicidal rating ECHORC ([1]; 0.0625 kg/ha): 0.0
- Herbicidal rating ECHORC ([1]; 0.1250 kg/ha): 2.0
- Herbicidal rating ECHORC ([1]; 0.2500 kg/ha): 3.0
- Herbicidal rating ECHORC ([2]; rate 0.0313 kg/ha): 0.0
- Herbicidal rating ECHORC ([2]; rate 0.0625 kg/ha): 0.0
- Herbicidal rating ECHORC ([2]; rate 0.1250 kg/ha): 2.0
- Herbicidal rating ECHORC ([2]; rate 0.2500 kg/ha): 3.0
- Preemergence herbicidal rating CHEAL ([3]; rate 0.0313 kg/ha): 9.0
- Preemergence herbicidal rating CHEAL ([3]; rate 0.0625 kg/ha): 9.0
- Preemergence herbicidal rating CHEAL ([3]; rate 0.1250 kg/ha): 9.0
- Preemergence herbicidal rating CHEAL ([3]; rate 0.2500 kg/ha): 9.0
- Preemergence herbicidal rating ORYSAT (ORYSAT (Rice, Tebonnet); rate 0.0313 kg/ha): 0.0
- Preemergence herbicidal rating ORYSAT (ORYSAT (Rice, Tebonnet); rate 0.0625 kg/ha): 1.0
- Preemergence herbicidal rating ORYSAT (ORYSAT (Rice, Tebonnet); rate 0.1250 kg/ha): 5.0
- Preemergence herbicidal rating ORYSAT (ORYSAT (Rice, Tebonnet); rate 0.2500 kg/ha): 7.0
- Herbicidal rating CYPSE (CYPSE (Flatsedge) [4]; 0.0313 kg/ha): 0.0
- Herbicidal rating CYPSE (CYPSE (Flatsedge) [4]; 0.0625 kg/ha): 0.0
- Herbicidal rating CYPSE (CYPSE (Flatsedge) [4]; 0.1250 kg/ha): 0.0
- Herbicidal rating CYPSE (CYPSE (Flatsedge) [4]; 0.2500 kg/ha): 0.0
- Postemergence herbicidal rating ZEAMX (ZEAMX (Corn, Field) [5]; Rate 0.0158 kg/ha): 5.5
- Postemergence herbicidal rating ZEAMX (ZEAMX (Corn, Field) [5]; Rate 0.0315 kg/ha): 7.5
- Postemergence herbicidal rating ZEAMX (ZEAMX (Corn, Field) [5]; Rate 0.0630 kg/ha): 8.0
- Preemergence herbicidal rating IPOHE ([6]; rate 0.0313 kg/ha): 0.0
- Preemergence herbicidal rating IPOHE ([6]; rate 0.0625 kg/ha): 9.0
- Preemergence herbicidal rating IPOHE ([6]; rate 0.1250 kg/ha): 9.0
- Preemergence herbicidal rating IPOHE ([6]; rate 0.2500 kg/ha): 9.0
- Preemergence herbicidal rating TRZAWR ([7]; rate 0.0313 kg/ha): 0.0
- Preemergence herbicidal rating TRZAWR ([7]; rate 0.0625 kg/ha): 1.0
- Preemergence herbicidal rating TRZAWR ([7]; rate 0.1250 kg/ha): 2.0
- Preemergence herbicidal rating TRZAWR ([7]; rate 0.2500 kg/ha): 7.0
- Postemergence herbicidal rating CASOB (CASOB (Sicklepod); Rate 0.0158 kg/ha): 4.0
- Postemergence herbicidal rating CASOB (CASOB (Sicklepod); Rate 0.0315 kg/ha): 7.0
- Postemergence herbicidal rating CASOB (CASOB (Sicklepod); Rate 0.0630 kg/ha): 9.0
- Postemergence herbicidal rating GALAP (GALAP (Galium); Rate 0.0158 kg/ha): 3.0
- Postemergence herbicidal rating GALAP (GALAP (Galium); Rate 0.0315 kg/ha): 7.0
- Postemergence herbicidal rating GALAP (GALAP (Galium); Rate 0.0630 kg/ha): 9.0
- Herbicidal rating CYPIR (CYPIR (Rice Flatsedge); 0.0313 kg/ha): 2.0
- Herbicidal rating CYPIR (CYPIR (Rice Flatsedge); 0.0625 kg/ha): 2.0
- Herbicidal rating CYPIR (CYPIR (Rice Flatsedge); 0.1250 kg/ha): 9.0
- Herbicidal rating CYPIR (CYPIR (Rice Flatsedge); 0.2500 kg/ha): 9.0
- Preemergence herbicidal rating AMBEL (AMBEL (Ragweed, Common); rate 0.0313 kg/ha): 0.0
- Preemergence herbicidal rating AMBEL (AMBEL (Ragweed, Common); rate 0.0625 kg/ha): 9.0
- Preemergence herbicidal rating AMBEL (AMBEL (Ragweed, Common); rate 0.1250 kg/ha): 9.0
- Preemergence herbicidal rating AMBEL (AMBEL (Ragweed, Common); rate 0.2500 kg/ha): 9.0
- Herbicidal rating CYPSE (CYPSE (Flatsedge) [8]; rate 0.0313 kg/ha): 0.0
- Herbicidal rating CYPSE (CYPSE (Flatsedge) [8]; rate 0.0625 kg/ha): 0.0
- Herbicidal rating CYPSE (CYPSE (Flatsedge) [8]; rate 0.1250 kg/ha): 0.0
- Herbicidal rating CYPSE (CYPSE (Flatsedge) [8]; rate 0.2500 kg/ha): 0.0
- Preemergence herbicidal rating ZEAMX (ZEAMX (Corn, Field) [9]; rate 0.0313 kg/ha): 1.0
- Preemergence herbicidal rating ZEAMX (ZEAMX (Corn, Field) [9]; rate 0.0625 kg/ha): 1.0
- Preemergence herbicidal rating ZEAMX (ZEAMX (Corn, Field) [9]; rate 0.1250 kg/ha): 5.0
- Preemergence herbicidal rating ZEAMX (ZEAMX (Corn, Field) [9]; rate 0.2500 kg/ha): 6.0
